Test results: PubChem BioAssay (NCI)
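Compound exposure: 48 hours, 5 concentrations, 96-well plates. TGI marks complete inhibition of growth.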

How the values were obtained:
Test in all cases: NCI-60 cell line screen, 48 h
OVCAR-4 ovarian = system: OVCAR-4 ovarian
MALME-3M melanoma = system: MALME-3M melanoma
HCT-116 colon = system: HCT-116 colon
CCRF-CEM leukemia = system: CCRF-CEM leukemia
UACC-62 melanoma = system: UACC-62 melanoma
HL-60(TB) leukemia = system: HL-60(TB) leukemia
SK-OV-3 ovarian = system: SK-OV-3 ovarian
NCI-H23 lung = system: NCI-H23 lung
SNB-78 CNS = system: SNB-78 CNS
LOX IMVI melanoma = system: LOX IMVI melanoma
NCI-H522 lung = system: NCI-H522 lung
A549 NSCLC = system: A549 NSCLC
786-0 renal = system: 786-0 renal
LXFL 529 NSCLC = system: LXFL 529 NSCLC
SW-620 colon = system: SW-620 colon
K-562 leukemia = system: K-562 leukemia
RPMI-8226 leukemia = system: RPMI-8226 leukemia
U251 CNS = system: U251 CNS
CAKI-1 renal = system: CAKI-1 renal
UACC-257 melanoma = system: UACC-257 melanoma
M19-MEL melanoma = system: M19-MEL melanoma
SNB-75 CNS = system: SNB-75 CNS
OVCAR-5 ovarian = system: OVCAR-5 ovarian
HOP-62 NSCLC = system: HOP-62 NSCLC
TK-10 renal = system: TK-10 renal
IGROV1 ovarian = system: IGROV1 ovarian
M14 melanoma = system: M14 melanoma
SF-539 CNS = system: SF-539 CNS
OVCAR-8 ovarian = system: OVCAR-8 ovarian
SR leukemia = system: SR leukemia
ACHN renal = system: ACHN renal
NCI-H226 lung = system: NCI-H226 lung
UO-31 renal = system: UO-31 renal
KM12 colon = system: KM12 colon
SF-268 CNS = system: SF-268 CNS
COLO 205 colon = system: COLO 205 colon
HOP-18 NSCLC = system: HOP-18 NSCLC
SK-MEL-5 melanoma = system: SK-MEL-5 melanoma
A498 renal = system: A498 renal
SF-295 CNS = system: SF-295 CNS
HOP-92 NSCLC = system: HOP-92 NSCLC
OVCAR-3 ovarian = system: OVCAR-3 ovarian
SN12C renal = system: SN12C renal
MOLT-4 leukemia = system: MOLT-4 leukemia
KM20L2 colon = system: KM20L2 colon
DLD-1 colon = system: DLD-1 colon
SK-MEL-2 melanoma = system: SK-MEL-2 melanoma
SK-MEL-28 melanoma = system: SK-MEL-28 melanoma
HT29 colon = system: HT29 colon
NCI-H460 lung = system: NCI-H460 lung
SNB-19 CNS = system: SNB-19 CNS
HCT-15 colon = system: HCT-15 colon
EKVX NSCLC = system: EKVX NSCLC
DMS 114 small cell lung = system: DMS 114 small cell lung
RXF 393 renal = system: RXF 393 renal
DMS 273 small cell lung = system: DMS 273 small cell lung
HCC-2998 colon = system: HCC-2998 colon

COc1ccc(NC(=O)CC(=O)NN2C(=O)/C(=C/c3ccc(N(CCC#N)CCC#N)cc3C)N=C2/C=C\c2ccccc2)cc1
TGI (OVCAR-4 ovarian): > 100 µM | TGI (MALME-3M melanoma): > 100 µM | TGI (HCT-116 colon): > 100 µM | TGI (CCRF-CEM leukemia): > 100 µM | TGI (UACC-62 melanoma): > 100 µM | TGI (HL-60(TB) leukemia): > 100 µM | TGI (SK-OV-3 ovarian): > 100 µM | TGI (NCI-H23 lung): > 100 µM | TGI (SNB-78 CNS): > 100 µM | TGI (LOX IMVI melanoma): > 100 µM | TGI (NCI-H522 lung): > 100 µM | TGI (A549 NSCLC): > 100 µM | TGI (786-0 renal): > 100 µM | TGI (LXFL 529 NSCLC): > 100 µM | TGI (SW-620 colon): > 100 µM | TGI (K-562 leukemia): > 100 µM | TGI (RPMI-8226 leukemia): > 100 µM | TGI (U251 CNS): > 100 µM | TGI (CAKI-1 renal): > 100 µM | TGI (UACC-257 melanoma): > 100 µM | TGI (M19-MEL melanoma): > 100 µM | TGI (SNB-75 CNS): > 100 µM | TGI (OVCAR-5 ovarian): > 100 µM | TGI (HOP-62 NSCLC): > 100 µM | TGI (TK-10 renal): > 100 µM | TGI (IGROV1 ovarian): > 100 µM | TGI (M14 melanoma): > 100 µM | TGI (SF-539 CNS): > 100 µM | TGI (OVCAR-8 ovarian): > 100 µM | TGI (SR leukemia): > 100 µM | TGI (ACHN renal): > 100 µM | TGI (NCI-H226 lung): > 100 µM | TGI (UO-31 renal): > 100 µM | TGI (KM12 colon): > 100 µM | TGI (SF-268 CNS): > 100 µM | TGI (COLO 205 colon): > 100 µM | TGI (HOP-18 NSCLC): > 100 µM | TGI (SK-MEL-5 melanoma): > 100 µM | TGI (A498 renal): > 100 µM | TGI (SF-295 CNS): > 100 µM | TGI (HOP-92 NSCLC): > 100 µM | TGI (OVCAR-3 ovarian): > 100 µM | TGI (SN12C renal): > 100 µM | TGI (MOLT-4 leukemia): > 100 µM | TGI (KM20L2 colon): > 100 µM | TGI (DLD-1 colon): > 100 µM | TGI (SK-MEL-2 melanoma): > 100 µM | TGI (SK-MEL-28 melanoma): > 100 µM | TGI (HT29 colon): > 100 µM | TGI (NCI-H460 lung): > 100 µM | TGI (SNB-19 CNS): > 100 µM | TGI (HCT-15 colon): > 100 µM

CC/C=C/c1cc2c(c3[nH]ccc13)[C@@H](C)CC2C (stereo partly specified) (tested in a mixture with another compound)
TGI (OVCAR-4 ovarian): 28.9 µM | TGI (MALME-3M melanoma): 36 µM | TGI (HCT-116 colon): 33.8 µM | TGI (HL-60(TB) leukemia): 44.5 µM | TGI (EKVX NSCLC): 36 µM | TGI (NCI-H23 lung): 33.1 µM | TGI (SNB-78 CNS): 32.3 µM | TGI (LOX IMVI melanoma): 29.4 µM | TGI (NCI-H522 lung): 30.9 µM | TGI (A549 NSCLC): 39.1 µM | TGI (786-0 renal): 33.1 µM | TGI (LXFL 529 NSCLC): 30 µM | TGI (SW-620 colon): 32.3 µM | TGI (DMS 114 small cell lung): 35.6 µM | TGI (U251 CNS): 31.9 µM | TGI (CAKI-1 renal): 31.7 µM | TGI (UACC-257 melanoma): 29.8 µM | TGI (M19-MEL melanoma): 35.3 µM | TGI (RXF 393 renal): 25.7 µM | TGI (OVCAR-5 ovarian): 34.1 µM | TGI (HOP-62 NSCLC): 32.8 µM | TGI (TK-10 renal): 36.9 µM | TGI (M14 melanoma): 29.3 µM | TGI (SF-539 CNS): 33.6 µM | TGI (OVCAR-8 ovarian): 31.4 µM | TGI (ACHN renal): 31.7 µM | TGI (NCI-H226 lung): 28.8 µM | TGI (UO-31 renal): 31 µM | TGI (KM12 colon): 32.2 µM | TGI (SF-268 CNS): 32 µM | TGI (COLO 205 colon): 39.7 µM | TGI (HOP-18 NSCLC): 26.5 µM | TGI (SF-295 CNS): 30.2 µM | TGI (DMS 273 small cell lung): 29.4 µM | TGI (SN12C renal): 28.8 µM | TGI (KM20L2 colon): 29.3 µM | TGI (DLD-1 colon): 26.3 µM | TGI (HCC-2998 colon): 10 µM | TGI (SK-MEL-2 melanoma): 29.6 µM | TGI (SK-MEL-28 melanoma): 30.2 µM | TGI (HT29 colon): 28.4 µM | TGI (NCI-H460 lung): 29.5 µM | TGI (SNB-19 CNS): 33.8 µM

Cc1nc(Nc2ccc(Cl)cc2)sc1C(=O)NNC(=O)C(=O)NN
TGI (OVCAR-4 ovarian): 34.3 µM | TGI (MALME-3M melanoma): 38.8 µM | TGI (HCT-116 colon): 33.9 µM | TGI (CCRF-CEM leukemia): 52.8 µM | TGI (UACC-62 melanoma): 28.6 µM | TGI (HL-60(TB) leukemia): 41 µM | TGI (EKVX NSCLC): 30.6 µM | TGI (SK-OV-3 ovarian): 40.5 µM | TGI (NCI-H23 lung): 31.8 µM | TGI (SNB-78 CNS): 64 µM | TGI (LOX IMVI melanoma): 32.3 µM | TGI (NCI-H522 lung): 32 µM | TGI (A549 NSCLC): 37.9 µM | TGI (786-0 renal): 32 µM | TGI (LXFL 529 NSCLC): 33.6 µM | TGI (SW-620 colon): 32.6 µM | TGI (K-562 leukemia): 51.4 µM | TGI (DMS 114 small cell lung): 40.7 µM | TGI (U251 CNS): 33.2 µM | TGI (CAKI-1 renal): 49.3 µM | TGI (UACC-257 melanoma): 52.5 µM | TGI (M19-MEL melanoma): 35.6 µM | TGI (RXF 393 renal): 43.4 µM | TGI (SNB-75 CNS): 48.6 µM | TGI (OVCAR-5 ovarian): 34.5 µM | TGI (HOP-62 NSCLC): 35.9 µM | TGI (TK-10 renal): 91.7 µM | TGI (IGROV1 ovarian): 33.7 µM | TGI (M14 melanoma): 34 µM | TGI (SF-539 CNS): 41 µM | TGI (OVCAR-8 ovarian): > 100 µM | TGI (SR leukemia): 54.8 µM | TGI (ACHN renal): 49.4 µM | TGI (NCI-H226 lung): 36.6 µM | TGI (UO-31 renal): 31.5 µM | TGI (KM12 colon): 36 µM | TGI (SF-268 CNS): 66.5 µM | TGI (COLO 205 colon): 35.8 µM | TGI (HOP-18 NSCLC): 37.1 µM | TGI (SK-MEL-5 melanoma): 32.7 µM | TGI (A498 renal): 29.5 µM | TGI (SF-295 CNS): 34 µM | TGI (DMS 273 small cell lung): 33.9 µM | TGI (HOP-92 NSCLC): 36.4 µM | TGI (OVCAR-3 ovarian): 38.1 µM | TGI (SN12C renal): 30.5 µM | TGI (MOLT-4 leukemia): 42.5 µM | TGI (KM20L2 colon): 30 µM | TGI (DLD-1 colon): 32.9 µM | TGI (HCC-2998 colon): 35.5 µM | TGI (SK-MEL-2 melanoma): 32.6 µM | TGI (SK-MEL-28 melanoma): 47.3 µM | TGI (HT29 colon): 31.2 µM | TGI (NCI-H460 lung): 34.7 µM | TGI (SNB-19 CNS): 46.3 µM | TGI (HCT-15 colon): 31.6 µM
